Values quoted from earlier work in patent US7851640B2, “Catalytic enantioselective synthesis of flavanones and chromanones” (Northwestern University, priority 2008, dated 2010).

Tested on: MMP-2
Conditions: PCa cells treated with genistein

O=c1c(-c2ccc(O)cc2)coc2cc(O)cc(O)c12 [genistein]
levels of MMP-2 gene transcript and protein: decreased levels of both MMP-2 gene transcript and protein
